How the values were obtained:
Type in all cases: biochemical
Ron (h) = biological target: T1, Ron (h) (Homo sapiens, UniProt Q04912); assay: Enzymatic activity assay, Ron (h) kinase, [γ-33P]-ATP; settings: 10 μM [γ-33P]-ATP, 40 min, room temperature; read-out: Inhibitory Activity on Ron (h) kinase, IC50
T1 construct: purchased
Method: (§1) Test samples: the compounds of the present invention, having structures and preparation methods shown above.
(§2) (1) Preparation of Compound Stock Solutions
(§3) Compounds were each dissolved in 100% DMSO to prepare stock solutions with a maximum concentration of 500 μM.
(§4) (2) Preparation of Compound Working Solutions
(§5) The compound stock solutions were diluted to final concentrations of 500 μM, 150 μM, 50 μM, 15 μM, 5 μM, 1.5 μM, 0.5 μM, 0.15 μM and 0.05 μM to prepare compound working solutions (50×).
(3) Preparation of Different Enzymatic Reaction Solutions
Ron (h) enzyme was dissolved in a mixture of 8 mM MOPS (pH 7.0), 0.2 mM EDTA and 250 μM GGMEDIYFEFMGGKKK to prepare an enzyme solution with a final concentration of 40.4 nM. An Mg/ATP mixture of 10 mM magnesium acetate and 10 μM [γ-^33P]-ATP was used to activate the enzymatic reaction.
(§6) The compound working solutions were added to a 384-well plate, with final concentrations of 10000 nM, 3000 nM, 1000 nM, 300 nM, 100 nM, 30 nM, 10 nM, 3 nM and 1 nM, respectively, and then different enzymatic reaction solutions prepared according to the above conditions were added. The reaction solutions were incubated at room temperature for 40 min, and then 0.5% phosphoric acid solutions were added to terminate the reaction. 10 μL of the reaction solution was added dropwise to P30 filter paper which was washed 4 times with a 0.425% phosphoric acid solution and once with methanol and then placed in a scintillation counter for detection. Gray analysis was performed on the results with Image J software, and IC50 values were calculated with GraphPad 5.0 software.

Mer (h) = biological target: T2, Mer (h) (Homo sapiens, UniProt Q12866); assay: Enzymatic activity assay, Mer (h) kinase, [γ-33P]-ATP; settings: 10 μM [γ-33P]-ATP, 40 min, room temperature; read-out: Inhibitory Activity on Mer (h), IC50
T2 construct: purchased
T2 sequence (Q12866 21-999): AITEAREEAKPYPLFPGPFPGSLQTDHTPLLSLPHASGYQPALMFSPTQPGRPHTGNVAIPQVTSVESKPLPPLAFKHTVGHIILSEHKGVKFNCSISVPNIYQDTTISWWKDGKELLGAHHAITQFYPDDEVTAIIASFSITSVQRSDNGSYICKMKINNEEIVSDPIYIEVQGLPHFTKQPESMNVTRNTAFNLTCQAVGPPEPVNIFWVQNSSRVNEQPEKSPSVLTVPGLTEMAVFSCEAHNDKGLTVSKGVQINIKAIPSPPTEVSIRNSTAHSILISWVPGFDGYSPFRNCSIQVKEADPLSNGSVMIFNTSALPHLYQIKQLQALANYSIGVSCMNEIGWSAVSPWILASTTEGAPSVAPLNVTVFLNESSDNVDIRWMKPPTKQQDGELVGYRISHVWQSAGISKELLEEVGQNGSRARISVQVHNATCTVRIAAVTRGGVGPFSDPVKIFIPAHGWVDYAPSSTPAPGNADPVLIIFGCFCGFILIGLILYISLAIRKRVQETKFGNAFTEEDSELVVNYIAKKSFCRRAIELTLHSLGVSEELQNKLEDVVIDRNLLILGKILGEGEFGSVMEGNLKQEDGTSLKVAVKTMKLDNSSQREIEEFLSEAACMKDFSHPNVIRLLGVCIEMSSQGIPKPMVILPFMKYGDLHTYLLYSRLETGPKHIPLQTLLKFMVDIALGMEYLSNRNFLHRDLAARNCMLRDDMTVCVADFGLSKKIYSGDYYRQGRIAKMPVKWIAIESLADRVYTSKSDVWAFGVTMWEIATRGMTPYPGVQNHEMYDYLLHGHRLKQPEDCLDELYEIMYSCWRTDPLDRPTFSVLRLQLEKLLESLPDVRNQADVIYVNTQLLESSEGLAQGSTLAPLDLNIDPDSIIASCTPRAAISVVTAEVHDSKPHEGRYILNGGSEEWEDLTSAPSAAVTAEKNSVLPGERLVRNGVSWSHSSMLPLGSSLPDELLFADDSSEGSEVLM
Method: as §1, §2, §3, §4, §5
(§7) (3) Preparation of different enzymatic reaction solutions
Mer (h) enzyme was dissolved in a mixture of 8 mM MOPS (pH 7.0), 0.2 mM EDTA, 30 mM NaCl and 250 μM GGMEDIYFEFMGGKKK to prepare an enzyme solution with a final concentration of 3.1 nM. An Mg/ATP mixture of 10 mM magnesium acetate and 10 μM [γ-^33P]-ATP was used to activate the enzymatic reaction.
as §6

Tyro-3 (h) = biological target: T3, Tyro-3 (h) (Homo sapiens, UniProt Q06418); assay: Enzymatic activity assay, Tyro-3 (h) kinase, [γ-33P]-ATP; settings: 10 μM [γ-33P]-ATP, 40 min, room temperature; read-out: Inhibitory Activity on Tyro-3 (h), IC50
T3 construct: purchased
T3 sequence (Q06418 41-890): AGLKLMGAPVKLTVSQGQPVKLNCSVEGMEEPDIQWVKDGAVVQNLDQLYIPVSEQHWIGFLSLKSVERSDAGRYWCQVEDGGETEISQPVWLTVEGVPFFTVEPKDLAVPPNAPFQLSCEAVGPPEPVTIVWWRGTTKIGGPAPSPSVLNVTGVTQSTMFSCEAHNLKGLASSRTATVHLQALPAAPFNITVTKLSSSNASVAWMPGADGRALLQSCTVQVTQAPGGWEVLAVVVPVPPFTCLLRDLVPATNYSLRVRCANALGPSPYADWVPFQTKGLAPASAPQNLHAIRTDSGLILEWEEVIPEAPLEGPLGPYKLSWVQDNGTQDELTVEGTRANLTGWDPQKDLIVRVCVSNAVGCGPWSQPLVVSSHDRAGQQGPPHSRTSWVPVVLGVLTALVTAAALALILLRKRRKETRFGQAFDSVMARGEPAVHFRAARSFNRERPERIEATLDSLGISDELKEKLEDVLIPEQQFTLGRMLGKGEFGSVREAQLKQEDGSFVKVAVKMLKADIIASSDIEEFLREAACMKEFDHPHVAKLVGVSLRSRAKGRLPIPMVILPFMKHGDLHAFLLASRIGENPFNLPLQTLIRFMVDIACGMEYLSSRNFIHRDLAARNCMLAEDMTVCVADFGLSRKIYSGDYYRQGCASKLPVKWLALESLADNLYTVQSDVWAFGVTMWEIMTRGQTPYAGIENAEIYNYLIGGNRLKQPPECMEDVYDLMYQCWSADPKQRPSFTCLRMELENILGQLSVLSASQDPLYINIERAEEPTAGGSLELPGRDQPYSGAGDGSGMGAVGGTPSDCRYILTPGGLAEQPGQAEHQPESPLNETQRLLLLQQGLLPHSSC
Method: as §1, §2, §3, §4, §5, §7
Tyro3 (h) enzyme was dissolved in a mixture of 8 mM MOPS (pH 7.0), 0.2 mM EDTA, 1 mM MnCl2 and 250 μM KVEKIGEGTYGVVYK to prepare an enzyme solution with a final concentration of 38 nM. An Mg/ATP mixture of 10 mM magnesium acetate and 10 μM [γ-^33P]-ATP was used to activate the enzymatic reaction.
as §6

T1 sequence (Q04912 25-1400): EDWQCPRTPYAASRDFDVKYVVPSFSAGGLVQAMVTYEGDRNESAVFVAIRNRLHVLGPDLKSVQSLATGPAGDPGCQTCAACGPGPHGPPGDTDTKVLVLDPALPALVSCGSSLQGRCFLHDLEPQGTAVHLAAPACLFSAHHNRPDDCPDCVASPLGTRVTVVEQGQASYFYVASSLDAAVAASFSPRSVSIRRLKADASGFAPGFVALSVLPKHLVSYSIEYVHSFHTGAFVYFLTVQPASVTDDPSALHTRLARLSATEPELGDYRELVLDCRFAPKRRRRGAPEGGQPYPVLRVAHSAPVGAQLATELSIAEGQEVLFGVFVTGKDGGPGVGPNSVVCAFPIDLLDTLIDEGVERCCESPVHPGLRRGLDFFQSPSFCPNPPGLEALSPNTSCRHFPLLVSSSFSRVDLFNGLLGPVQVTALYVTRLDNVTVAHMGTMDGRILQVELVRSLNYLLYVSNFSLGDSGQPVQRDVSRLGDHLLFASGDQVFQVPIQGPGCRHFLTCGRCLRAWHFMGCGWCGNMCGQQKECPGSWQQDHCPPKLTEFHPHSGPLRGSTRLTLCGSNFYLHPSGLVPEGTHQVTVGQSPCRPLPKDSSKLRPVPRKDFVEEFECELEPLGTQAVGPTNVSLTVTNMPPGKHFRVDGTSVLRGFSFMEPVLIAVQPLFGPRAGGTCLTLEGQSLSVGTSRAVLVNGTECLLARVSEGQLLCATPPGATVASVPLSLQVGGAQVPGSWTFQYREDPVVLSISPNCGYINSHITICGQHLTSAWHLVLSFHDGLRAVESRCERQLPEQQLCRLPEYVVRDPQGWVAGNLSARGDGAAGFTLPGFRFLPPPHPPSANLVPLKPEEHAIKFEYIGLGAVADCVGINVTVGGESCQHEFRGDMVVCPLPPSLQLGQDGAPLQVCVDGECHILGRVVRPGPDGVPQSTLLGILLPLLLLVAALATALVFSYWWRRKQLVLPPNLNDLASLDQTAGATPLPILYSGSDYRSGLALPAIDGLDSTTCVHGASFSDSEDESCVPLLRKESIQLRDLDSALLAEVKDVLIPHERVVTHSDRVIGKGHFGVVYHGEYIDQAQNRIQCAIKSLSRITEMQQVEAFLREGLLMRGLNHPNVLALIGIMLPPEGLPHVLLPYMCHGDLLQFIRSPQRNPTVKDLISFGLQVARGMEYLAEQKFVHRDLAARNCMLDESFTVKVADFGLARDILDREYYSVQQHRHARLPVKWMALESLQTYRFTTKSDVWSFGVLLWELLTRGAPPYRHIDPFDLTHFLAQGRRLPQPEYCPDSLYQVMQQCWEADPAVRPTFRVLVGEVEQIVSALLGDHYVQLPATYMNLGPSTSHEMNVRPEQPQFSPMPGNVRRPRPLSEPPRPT

| Compound | IC50 (Ron (h)) [nM] | IC50 (Mer (h)) [nM] | IC50 (Tyro-3 (h)) [nM] |
| --- | --- | --- | --- |
| CC(C)n1cc(-c2ccc(F)cc2)c(=O)c(C(=O)Nc2ccc(Oc3ccnc(N)c3Cl)cn2)n1 [Compound 11, N-(5-((2-amino-3-chloropyridin-4-yl)oxy)pyridin-2-yl)-5-(4-fluorophenyl)-1-isopropyl-4-oxo-1,4-dihydropyridazine-3-carboxamide] | 2 | 9 | 54 |
| CC(C)n1cc(-c2ccc(F)cc2)c(=O)c(C(=O)Nc2ncc(Oc3ccnc(N)c3Cl)cn2)n1 [Compound 12, N-(5-((2-amino-3-chloropyridin-4-yl)oxy)pyrimidin-2-yl)-5-(4-fluorophenyl)-1-isopropyl-4-oxo-1,4-dihydropyridazine-3-carboxamide] | 19 | 8 | 23 |
| Cn1cc(-c2ccc(F)cc2)c(=O)c(C(=O)Nc2ccc(Oc3ccnc(N)c3Cl)cn2)n1 [Compound 33, N-(5-((2-amino-3-chloropyridin-4-yl)oxy)pyridin-2-yl)-5-(4-fluorophenyl)-1-methyl-4-oxo-1,4-dihydropyridazine-3-carboxamide] | 17 | 3 | 23 |
| C=CCn1cc(-c2ccc(F)cc2)c(=O)c(C(=O)Nc2ccc(Oc3ccnc(N)c3Cl)cn2)n1 [Compound 35, 1-allyl-N-(5-((2-amino-3-chloropyridin-4-yl)oxy)pyridin-2-yl)-5-(4-fluorophenyl)-4-oxo-1,4-dihydropyridazine-3-carboxamide] | 5 | 4 | 24 |
| C=CCn1cc(-c2ccc(F)cc2)c(=O)c(C(=O)Nc2ncc(Oc3ccnc(N)c3Cl)cn2)n1 [Compound 37] | 12 | 7 | 22 |

Next, values leading:

| IC50 (Ron (h)) [nM] | IC50 (Mer (h)) [nM] | IC50 (Tyro-3 (h)) [nM] | Compound |
| --- | --- | --- | --- |
| 16 | 8 | 39 | CC(C)n1cc(-c2ccc(F)cc2)c(=O)c(C(=O)Nc2ccc(Oc3ccnc(N)c3Cl)nc2)n1 [Compound 13, N-(6-((2-amino-3-chloropyridin-4-yl)oxy)pyridin-3-yl)-5-(4-fluorophenyl)-1-isopropyl-4-oxo-1,4-dihydropyridazine-3-carboxamide] |
| 7 | 2 | 31 | Nc1nccc(Oc2ccc(NC(=O)c3nn(C4CC4)cc(-c4ccc(F)cc4)c3=O)nc2)c1Cl [Compound 17, N-(5-((2-amino-3-chloropyridin-4-yl)oxy)pyridin-2-yl)-1-cyclopropyl-5-(4-fluorophenyl)-4-oxo-1,4-dihydropyridazine-3-carboxamide] |
| 14 | 6 | 49 | Nc1nccc(Oc2cnc(NC(=O)c3nn(C4CC4)cc(-c4ccc(F)cc4)c3=O)nc2)c1Cl [Compound 18, N-(5-((2-amino-3-chloropyridin-4-yl)oxy)pyrimidin-2-yl)-5-(4-fluorophenyl)-1-cyclopropyl-4-oxo-1,4-dihydropyridazine-3-carboxamide] |
| 64 | 18 | 73 | Nc1nccc(Oc2ccc(NC(=O)c3nn(C4CC4)cc(-c4ccc(F)cc4)c3=O)cn2)c1Cl [Compound 19, N-(6-((2-amino-3-chloropyridin-4-yl)oxy)pyridin-3-yl)-1-cyclopropyl-5-(4-fluorophenyl)-4-oxo-1,4-dihydropyridazine-3-carboxamide] |
| 12 | 3 | 28 | C=CCn1cc(-c2ccc(F)cc2)c(=O)c(C(=O)Nc2ccc(Oc3ccnc(N)c3Cl)nc2)n1 [Compound 39, 1-allyl-N-(6-((2-amino-3-chloropyridin-4-yl)oxy)pyridin-3-yl)-5-(4-fluorophenyl)-4-oxo-1,4-dihydropyridazine-3-carboxamide] |

Reference: patent US20220298146A1, “HETEROCYCLIC DERIVATIVE AND USE THEREOF” (Transthera Sciences (Nanjing), Inc., priority 2019, published 2022)
